Target: T1, small-conductance Ca2+-activated K+ channels (SK channels, subtype 2) (Homo sapiens, UniProt Q9H2S1)
T1 construct: expressed in transfected cells; host or cells: HEK293
Assay: whole-cell patch-clamp of ionic current through SK2 channels in HEK293 cells (SC100)
Format: cell-based
Conditions: concentration that increases the basal current by 100%; HEK293 cells expressing SK2 channels
Description: The biological activity was determined as follows. The ionic current through small-conductance Ca^2+-activated K^+ channels (SK channels, subtype 2) was measured using the whole-cell configuration of the patch-clamp technique in a patch-clamp set-up using HEK293 tissue culture cells expressing SK2 channels as described in Hougaard et al., British Journal of Pharmacology 151, 655-665, May 8, 2007, the entire teachings of which are incorporated herein by reference. In one aspect, a compound is defined to be an SK PAM if the compound increases current in this assay, for example, if the SC100 value of the compound is less than or equal to 10 μM as determined by this assay. The SC100 value is defined to be the concentration of compound that increases the basal current by 100%.

Row | SMILES | SC100
1 | FC(F)c1csc(-c2nc(NC3CCC(F)(F)CC3)cc(N3CCOCC3)n2)n1 [Compound 339, N-(4,4-difluorocyclohexyl)-2-(4-(difluoromethyl)thiazol-2-yl)-6-morpholinopyrimidin-4-amine] | ++ (++ means 200 nM-1000 nM)
2 | O=C(N1CC(Oc2cc(NC3CCC(F)(F)CC3)nc(-n3ccc(CO)n3)n2)C1)C(F)(F)F [Compound 319, 1-(3-((6-((4,4-difluorocyclohexyl)amino)-2-(3-(hydroxymethyl)-1H-pyrazol-1-yl)pyrimidin-4-yl)oxy)azetidin-1-yl)-2,2,2-trifluoroethan-1-one] | + (+ means >1 uM)
3 | O=C(N1CC(Oc2cc(NC3CCC(F)(F)CC3)nc(-n3ccc(C(F)F)n3)n2)C1)C(F)(F)F [Compound 299, 1-(3-((6-((4,4-difluorocyclohexyl)amino)-2-(3-(difluoromethyl)-1H-pyrazol-1-yl)pyrimidin-4-yl)oxy)azetidin-1-yl)-2,2,2-trifluoroethan-1-one] | ++ (++ means 200 nM-1000 nM)
4 | COC(=O)N1CCC(Oc2cc(NC3CCC(F)(F)CC3)nc(-n3ccc(CF)n3)n2)C1 (centres unmarked) [Compound 297, methyl 3-((6-((4,4-difluorocyclohexyl)amino)-2-(3-(fluoromethyl)-1H-pyrazol-1-yl)pyrimidin-4-yl)oxy)pyrrolidine-1-carboxylate] | ++ (++ means 200 nM-1000 nM)

Next, values leading:

Row | SC100 | SMILES
5 | + (+ means >1 uM) | COC(=O)N1CC(Oc2cc(NC3CCC(F)(F)CC3)nc(-n3ccc(C(C)O)n3)n2)C1 (centres unmarked) [Compound 307, methyl 3-((6-((4,4-difluorocyclohexyl)amino)-2-(3-(1-hydroxyethyl)-1H-pyrazol-1-yl)pyrimidin-4-yl)oxy)azetidine-1-carboxylate]
6 | ++ (++ means 200 nM-1000 nM) | Cc1cc(NC2CCC(F)(F)CC2)nc(-n2nc(C)cc2C)n1 [Compound 247, N-(4,4-difluorocyclohexyl)-2-(3,5-dimethyl-1H-pyrazol-1-yl)-6-methylpyrimidin-4-amine]
7 | ++ (++ means 200 nM-1000 nM) | Cc1cc(C)n(-c2cc(C3CC3)nc(NC3CCC(F)(F)CC3)n2)n1 [Compound 226, 4-cyclopropyl-N-(4,4-difluorocyclohexyl)-6-(3,5-dimethyl-1H-pyrazol-1-yl)pyrimidin-2-amine]
8 | + (+ means >1 uM) | Cc1cc(C)n(-c2nc(NC3CCC(F)(F)CC3)cc([C@@H](C)O)n2)n1 (single isomer, unassigned) [Compound 198, (−)1-(6-((4,4-difluorocyclohexyl)amino)-2-(3,5-dimethyl-1H-pyrazol-1-yl)pyrimidin-4-yl)ethan-1-ol]
9 | ++ (++ means 200 nM-1000 nM) | Cc1ccn(-c2nc(NC3CCC(F)(F)CC3)cc(OC3CN(C(=O)OC(C)(C)C)C3)n2)n1 [Compound 151, tert-butyl 3-((6-((4,4-difluorocyclohexyl)amino)-2-(3-methyl-1H-pyrazol-1-yl)pyrimidin-4-yl)oxy)azetidine-1-carboxylate]
10 | + (+ means >1 uM) | Cc1cc(C)n(-c2cc(OCc3ncn(C)n3)cc(NC3CCC(F)(F)CC3)n2)n1 [Compound 275, N-(4,4-difluorocyclohexyl)-6-(3,5-dimethyl-1h-pyrazol-1-yl)-4-((1-methyl-1H-1,2,4-triazol-3-yl)methoxy)pyridin-2-amine]
11 | + (+ means >1 uM) | Cc1cc(NC2CCC(F)(F)CC2)nc(-c2cccc(Cl)n2)n1 [Compound 230, 2-(6-chloropyridin-2-yl)-N-(4,4-difluorocyclohexyl)-6-methyl pyrimidin-4-amine]
12 | ++ (++ means 200 nM-1000 nM) | Cc1cc(NC2CCC(F)(F)CC2)nc(-n2cc(C)c(C#N)n2)n1 [Compound 253, 1-(4-((4,4-difluorocyclohexyl)amino)-6-methylpyrimidin-2-yl)-4-methyl-1H-pyrazole-3-carbonitrile]
13 | + (+ means >1 uM) | Cc1cc(C)n(-c2nccc(NC3CCC(F)(F)CC3)n2)n1 [Compound 163, N-(4,4-difluorocyclohexyl)-2-(3,5-dimethyl-1H-pyrazol-1-yl)pyrimidin-4-amine]

Same assay, conditions: whole-cell patch-clamp, HEK293 cells expressing SK2 channels; concentration that increases the basal current by 100%

Row | SMILES | SC100 (μM)
14 | Cc1ccn(-c2cc(OCc3ncco3)cc(NC3CCC(F)(F)CC3)n2)n1 [IN11177-043-P1] | ++ (++ means 200 nM-1000 nM)
15 | Cc1csc(-c2nc(NC3CCC(F)(F)CC3)cc(N3C[C@@H]4C[C@H]3CN4)n2)n1 [IN10987-050-P1] | + (+ means >1 uM)
16 | Cc1ccn(-c2nc(NC3CC=CCC3)cc(N3CC4(COC4)C3)n2)n1 (centres unmarked) [NSSy5670] | ++ (++ means 200 nM-1000 nM)
17 | Cc1ccn(-c2cc([C@@H](O)c3ncco3)cc(NC3CCC(F)(F)CC3)n2)n1 [NSSy6415] | ++ (++ means 200 nM-1000 nM)
18 | Cc1csc(-c2cc(N3CCC(C4COC4)CC3)cc(NC3CCC(F)(F)CC3)n2)n1 [NSSy5815] | ++ (++ means 200 nM-1000 nM)
19 | Fc1cnn(-c2nc(NC3CCC(F)(F)CC3)cc(N3CCOCC3)n2)c1 [IN11030-013-P1, N-(4,4-difluorocyclohexyl)-2-(4-fluoro-1H-pyrazol-1-yl)-6-morpholinopyrimidin-4-amine] | + (+ means >1 uM)
20 | Cc1ccn(-c2cc(N3CCOCC3)cc([C@H](O)c3ccc(F)cc3)n2)n1 [NSSy6514, (R)-(4-fluorophenyl)(6-(3-methyl-1H-pyrazol-1-yl)-4-morpholinopyridin-2-yl)methanol] | + (+ means >1 uM)
21 | Cc1ccn(-c2cc(C3CCNCC3)cc(NC3CCC(F)(F)CC3)n2)n1 [NSSy6897, N-(4,4-difluorocyclohexyl)-6-(3-methyl-1H-pyrazol-1-yl)-4-(piperidin-4-yl)pyridin-2-amine] | ++ (++ means 200 nM-1000 nM)
22 | CCOC(=O)c1cnc(-c2nc(C)cs2)nc1NC1CCC(F)(F)CC1 [IN11238-035-P1, ethyl 4-((4,4-difluorocyclohexyl)amino)-2-(4-methylthiazol-2-yl)pyrimidine-5-carboxylate] | + (+ means >1 uM)
23 | Cc1ccn(-c2cc(C(O)c3cccnc3)cc(NC3CCC(F)(F)CC3)n2)n1 (centres unmarked) [NSSy5676, (2-((4,4-difluorocyclohexyl)amino)-6-(3-methyl-1H-pyrazol-1-yl)pyridin-4-yl)(pyridin-3-yl)methanol] | +++ (+++ means <200 nM)
24 | COCCNc1cc(-n2ccc(C)n2)nc(NC2CCC(F)(F)CC2)n1 [NSSy6700] | + (+ means >1 uM)
25 | Cc1csc(-c2nc(NC3CCC(F)(F)CC3)cc(N3CC4(COC4)C3)n2)n1 [NSSy5664] | ++ (++ means 200 nM-1000 nM)
26 | Cc1ccn(-c2nc(N[C@@H]3C[C@H]4CC[C@@H]3O4)cc(N3CCOCC3)n2)n1 [NSSy6445] | + (+ means >1 uM)
27 | Cc1ccnn1-c1nc(NC2CCC(F)(F)CC2)cc(N2CCOCC2)n1 [IN11237-056-P1] | + (+ means >1 uM)
28 | COc1cc(NCCC(C)(F)F)nc(-c2nc(C)cs2)n1 [IN11107-021-P1] | + (+ means >1 uM)
29 | COC(=O)N1CC(Oc2cc(N(C)C3CCC(F)(F)CC3)nc(-c3nc(C)cs3)n2)C1 [NSSy6105, methyl 3-((6-((4,4-difluorocyclohexyl) (methyl)amino)-2-(4-methylthiazol-2-yl)pyrimidin-4-yl)oxy) azetidine-1-carboxylate] | + (+ means >1 uM)
30 | CCN(CC)CC1CN(c2cc(NC3CCC(F)(F)CC3)nc(-c3nc(C)cs3)n2)CCO1 (centres unmarked) [IN10881-092-P1] | +++ (+++ means <200 nM)
31 | COC[C@@H]1CN(c2cc(NC3CCCCC3)nc(-c3nc(C)cs3)n2)CCO1 [NSSy6124] | ++ (++ means 200 nM-1000 nM)
32 | Cc1ccn(-c2cc(N3CC4(COC4)C3)nc(NC3CCC(F)(F)CC3)n2)n1 [NSSy6522] | ++ (++ means 200 nM-1000 nM)
33 | Cc1nsc(-c2nc(NC3CCC(F)(F)CC3)cc(N3CCN4C(=O)OC[C@H]4C3)n2)n1 [NSSy6252] | ++ (++ means 200 nM-1000 nM)

Further lines, results first:

Row | SC100 (μM) | SMILES
34 | ++ (++ means 200 nM-1000 nM) | COC(=O)N(C)C1CC(Oc2cc(NC3CCC(F)(F)CC3)nc(-n3ccc(C)n3)n2)C1 (centres unmarked) [NSSy5672, methyl (3-((6-((4,4-difluorocyclohexyl)amino)-2-(3-methyl-1H-pyrazol-1-yl)pyrimidin-4-yl)oxy)cyclobutyl)(methyl)carbamate]
35 | + (+ means >1 uM) | Cc1cc(C)n(-c2nc(OC3CCC(F)(F)CC3)cc(N3CCOCC3)n2)n1 [IN10991-021-P1, 4-(6-((4,4-difluorocyclohexyl)oxy)-2-(3,5-dimethyl-1H-pyrazol-1-yl)pyrimidin-4-yl)morpholine]
36 | ++ (++ means 200 nM-1000 nM) | CSc1cc(NC2CCC(F)(F)CC2)nc(-c2nc(C)cs2)n1 [IN11054-039-P1]
37 | + (+ means >1 uM) | COC(=O)NCc1cc(NC2CCC(F)(F)CC2)nc(-n2ccc(C)n2)n1 [IN11053-033-P1, methyl ((6-((4,4-difluorocyclohexyl)amino)-2-(3-methyl-1H-pyrazol-1-yl)pyrimidin-4-yl)methyl) carbamate]
38 | + (+ means >1 uM) | Cc1ccn(-c2nc(NC3CC(F)(F)C3)cc(N3CCOCC3)n2)n1 [IN11107-020-P1]
39 | ++ (++ means 200 nM-1000 nM) | Cc1csc(-c2nc(NC3CCC(F)(F)CC3)cc(C(C)C)n2)n1 [IN11177-064-P1, N-(4,4-difluorocyclohexyl)-6-isopropyl-2-(4-methylthiazol-2-yl)pyrimidin-4-amine]
40 | + (+ means >1 uM) | COc1cc(NC2CC(F)(F)C2)nc(-n2nc(C)cc2C)n1 [IN11108-018-P1]
41 | + (+ means >1 uM) | Cc1cc(C)n(-c2cc(C)c(CNC3CCC(F)(F)CC3)nn2)n1 [IN11054-078-P1, N-((6-(3,5-dimethyl-1H-pyrazol-1-yl)-4-methylpyridazin-3-yl)methyl)-4,4-difluorocyclohexan-1-amine]

Reference: US10774064B2 (Cadent Therapeutics, Inc., priority 2016, dated 2020)
